Test results as given in patent US9572794B2, “Substituted indoles as selective protease activated receptor 4 (PAR-4) antagonists” (Vanderbilt University, priority 2014, dated 2017).
pIC50: −log10 of the molar value.

Target: T1, PAR4 (Homo sapiens, UniProt Q96RI0)
T1 construct: 60 μL of washed platelets (Tyrodes buffer containing 0.1% BSA); endogenous in cells
T1 sequence (Q96RI0 18-385): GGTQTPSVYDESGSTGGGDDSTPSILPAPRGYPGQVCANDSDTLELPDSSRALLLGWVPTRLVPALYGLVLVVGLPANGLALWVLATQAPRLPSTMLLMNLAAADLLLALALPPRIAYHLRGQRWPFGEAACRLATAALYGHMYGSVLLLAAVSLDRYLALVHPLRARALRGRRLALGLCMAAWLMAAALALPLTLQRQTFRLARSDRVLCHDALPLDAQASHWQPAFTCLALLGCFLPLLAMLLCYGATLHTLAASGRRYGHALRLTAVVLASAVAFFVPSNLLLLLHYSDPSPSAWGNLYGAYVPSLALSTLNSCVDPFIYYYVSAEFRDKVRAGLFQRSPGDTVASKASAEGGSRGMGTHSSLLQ
Assay: PAC-1 Binding assay (antagonism of PAR4 mediated αIIBβ3 activation, flow cytometry)
Type: cell-based
Details: for % Max PAC-1: washed platelets, 100% response = DMSO treated control stimulated with 200 μM PAR4-AP, mean values; for pIC50: washed platelets stimulated with PAR4-AP, PAC-1 binding, sigmoidal dose response, variable slope
Method: PAC-1 Binding assay: 60 μL of washed platelets (Tyrodes buffer containing 0.1% BSA) at a concentration of 0.15×10^8 platelets/mL were added to 5 mL round bottom polystyrene tubes (BD, Franklin Lakes, N.J.). FITC conjugated PAC-1 (BD Biosciences, San Jose, Calif.) antibody was diluted (to the manufacturers recommended concentration) in Tyrode's buffer containing 0.1% BSA. 40 μL of diluted antibody was added to the platelets and allowed to incubate for 5 minutes. Platelets were pre-treated with indicated concentrations of antagonist or DMSO control for 5 minutes followed by addition of PAR1-AP (GL Biochem, Shanghai, China) or PAR4-AP for 10 minutes. […] The final DMSO concentration was 0.5%. Platelets were stored up to 18 hours at 4° C. before flow cytometric analysis. Analysis was carried out on a BD FACS Canto II (Franklin Lakes, N.J.). Fluorescent intensity was determined for 100,000 events within the platelet gate. Data was collected and analyzed via FACS DiVa software. Flow cytometric data analysis was conducted by the following method. The DMSO-vehicle treated control was subtracted from each data point. 100% response for PAR4-AP was determined for each individual as the DMSO treated control stimulated with either 200 μM PAR4-AP, or 20 μM PAR1-AP. Data was plotted in GraphPad PRISM v.5.0. For compounds with a notable reduction in PAC-1 binding response, dose response curves and IC50 values were generated using the inhibitory sigmoidal dose response ‘variable slope’ parameter. PAR4 results are plotted as mean values.

% Max PAC-1 [%] | pIC50 | SMILES
80.6 | – | COc1ccc(-c2c(CO)n(Cc3cccc(F)c3)c3ccc(OC(F)(F)F)cc23)cn1 [Example B1]
19.7 | 6.08 | COc1ccc(-c2c(CO)n(Cc3ccc(F)cc3F)c3ccc(OC(F)(F)F)cc23)cn1 [Example B2]
59.7 | – | COc1ccc(-c2c(CO)n(Cc3cccc(C(F)(F)F)c3)c3ccc(OC(F)(F)F)cc23)cn1 [Example B3]
53.4 | – | COc1ccc(-c2c(CO)n(Cc3ccccc3)c3ccc(OC(F)(F)F)cc23)cn1 [Example B4]
36.5 | – | COc1ccc(-c2c(CO)n(Cc3cc(F)cc(F)c3)c3ccc(OC(F)(F)F)cc23)cn1 [Example B5]
89.0 | – | COc1ccc(-c2c(CO)n(Cc3ccccc3F)c3ccc(OC(F)(F)F)cc23)cn1 [Example B6]
27.2 | – | COc1ccc(-c2c(CO)n(Cc3cccc(Br)c3)c3ccc(OC(F)(F)F)cc23)cn1 [Example B7]
93.9 | – | COc1ccc(-c2c(CO)n(C)c3ccc(OC(F)(F)F)cc23)cn1 [Example B8]
110.6 | – | COc1cc(Cn2c(CO)c(-c3ccc(OC)nc3)c3cc(OC(F)(F)F)ccc32)cc(OC)c1 [Example B10]
40.9 | – | COc1cccc(Cn2c(CO)c(-c3ccc(OC)nc3)c3cc(OC(F)(F)F)ccc32)c1 [Example B11]
27.8 | – | COc1ccc(-c2c(CO)n(Cc3cccc(Cl)c3)c3ccc(OC(F)(F)F)cc23)cn1 [Example B12]
108.5 | – | COc1cccc(Cn2c(CO)c(-c3ccc(OC)nc3)c3cc(C(F)(F)F)ccc32)c1 [Example B13, (1-(3-methoxybenzyl)-3-(6-methoxypyridin-3-yl)-5-(trifluoromethyl)-1H-indol-2-yl)methanol]
74.3 | – | COc1ccc(-c2c(CO)n(Cc3cccc(Br)c3)c3ccc(S(C)(=O)=O)cc23)cn1 [Example B21]
113.7 | – | COc1ccc(-c2c(CO)n(Cc3ccccn3)c3ccc(C#N)cc23)cn1 [Example B26]
100.1 | – | COc1ccc(-c2c(CO)n(Cc3ccccn3)c3ccc(S(C)(=O)=O)cc23)cn1 [Example B27]
109.1 | – | COc1ccc(-c2c(CO)n(Cc3cccc(Br)c3)c3ccc(C#N)cc23)cn1 [Example B31]
105.0 | – | COc1ccc(-c2c(CO)n(Cc3ccc(F)cc3F)c3ccc(C#N)cc23)cn1 [Example B33]
108.8 | – | COc1ccc(-c2c(CO)n(Cc3ccc(C#N)cc3F)c3ccc(C#N)cc23)cn1 [Example B36]
107.2 | – | COc1ccc(-c2c(CO)n(Cc3ccccn3)c3cc4c(cc23)OCO4)cn1 [Example B38]
100.1 | – | COc1ccc(-c2c(CO)n(Cc3cccc(Cl)c3)c3cc4c(cc23)OCO4)cn1 [Example B39]
98.6 | – | COc1ccc(-c2c(CO)n(Cc3ccc(C#N)cc3F)c3cc4c(cc23)OCO4)cn1 [Example B40]
96.5 | – | COc1ccc(-c2c(CO)n(Cc3cccc(Br)c3)c3cc4c(cc23)OCO4)cn1 [Example B44]
129.1 | – | COc1cccc(Cn2c(CO)c(-c3ccc(OC)nc3)c3cc4c(cc32)OCO4)c1 [Example B45]
101.7 | – | OCc1c(-c2ccncc2)c2cc(OC(F)(F)F)ccc2n1Cc1ccccc1Cl [Example B47]
14.5 | 5.70 | CSc1ncc(-c2c(CO)n(Cc3ccc(F)cc3F)c3ccc(OC(F)(F)F)cc23)cn1 [Example B48]
96.0 | – | OCc1c(-c2cncnc2)c2cc(OC(F)(F)F)ccc2n1Cc1ccc(F)cc1F [Example B49]

% Max PAC-1 [%] | pIC50 | SMILES
48.5 | – | CCOc1ncc(-c2c(CO)n(Cc3ccc(F)cc3F)c3ccc(OC(F)(F)F)cc23)cn1 [Example B51]
24.0 | – | CCOc1ncc(-c2c(CO)n(Cc3ccccc3Cl)c3ccc(OC(F)(F)F)cc23)cn1 [Example B52]
48.2 | – | OCc1c(-c2ccc(F)nc2)c2cc(OC(F)(F)F)ccc2n1Cc1ccc(F)cc1F [Example B53]
2.01 | 5.54 | COc1ncc(-c2c(CO)n(Cc3ccccc3Cl)c3ccc(OC(F)(F)F)cc23)cn1 [Example B54]
101.8 | – | OCc1c(-c2cncnc2)c2cc(OC(F)(F)F)ccc2n1Cc1ccccc1Cl [Example B55]
53.7 | < 5.00 | COc1ncc(-c2c(CO)n(Cc3ccc(F)cc3F)c3ccc(OC(F)(F)F)cc23)cn1 [Example B56]
21.05 | 5.89 | OCc1c(-c2ccc(F)nc2)c2cc(OC(F)(F)F)ccc2n1Cc1ccccc1Cl [Example B57]
102.2 | – | OCc1c(-c2ccncc2)c2cc(OC(F)(F)F)ccc2n1Cc1ccc(F)cc1F [Example B58]
4.31 | 5.87 | COc1ccc2c(-c3ccc(OC)nc3)c(CO)n(Cc3ccccc3Cl)c2c1 [Example B59]
21.33 | 5.37 | COc1ccc2c(-c3cnc(SC)nc3)c(CO)n(Cc3ccccc3Cl)c2c1 [Example B60]
19.78 | 5.42 | CCOc1ccc2c(-c3ccc(OC)nc3)c(CO)n(Cc3ccccc3Cl)c2c1 [Example B61]
34.32 | 5.43 | COc1ccc(-c2c(CO)n(Cc3ccccc3)c3cc(OC(F)(F)F)ccc23)cn1 [Example B62]
14.77 | 5.67 | CCOc1ccc2c(-c3cnc(SC)nc3)c(CO)n(Cc3ccccc3Cl)c2c1 [Example B63]
18.53 | 5.86 | CSc1ncc(-c2c(CO)n(Cc3ccccc3Cl)c3cc(OC(C)C)ccc23)cn1 [Example B64]
12.25 | 6.02 | COc1ccc(-c2c(CO)n(Cc3ccccc3Cl)c3cc(OC(F)(F)F)ccc23)cn1 [Example B65]
59.45 | – | COc1ccc(-c2c(CO)n(Cc3ccccc3Cl)c3cc(OC(C)C)ccc23)cn1 [Example B66]
116.1 | – | COc1ccc(-c2c(CO)[nH]c3ccc(OC(F)(F)F)cc23)cn1 [Example B67]
61.98 | – | COc1ccc(-c2c(CO)n(Cc3csc(-c4ccccc4)n3)c3ccc(OC(F)(F)F)cc23)cn1 [Example B68]
89.19 | – | COc1ccc(-c2c(CO)n(CC3CSC(c4ccccc4)=N3)c3ccc(OC(F)(F)F)cc23)cn1 (stereo not drawn) [Example B69]
61.82 | – | COc1ccc(-c2c(COCc3csc(-c4ccccc4)n3)n(Cc3csc(-c4ccccc4)n3)c3ccc(OC(F)(F)F)cc23)cn1 [Example B70]
5.57 | 6.79 | CSc1ncc(-c2c(CO)n(Cc3ccccc3Cl)c3cc(OC(F)(F)F)ccc23)cn1 [Example B71]
81.76 | – | COc1ccc(-c2c(CO)n(Cc3ccccc3)c3cc(OC(C)C)ccc23)cn1 [Example B72]
107.63 | – | CSc1ccc(-c2c(CO)n(Cc3ccccc3Cl)c3ccc(OC(F)(F)F)cc23)cc1 [Example B73]
38.32 | – | COc1nn2cc(-c3c(CO)n(Cc4csc(-c5ccccc5)n4)c4ccc(OC(F)(F)F)cc34)nc2s1 [Example B74]
8.40 | 6.74 | COc1nn2cc(-c3c(CO)n(Cc4ccccc4Cl)c4ccc(OC(F)(F)F)cc34)nc2s1 [Example B75, (1-(2-chlorobenzyl)-3-(2-methoxyimidazo[2,1-b][1,3,4]thiadiazol-6-yl)-5-(trifluoromethoxy)-1H-indol-2-yl)methanol]
79.22 | – | CSc1ccc(-c2c(CO)n(Cc3ccccc3Cl)c3ccc(OC(F)(F)F)cc23)cn1 [Example B76]
